Experimental data published in article PMC5218480 (PLoS ONE, 2017).

Tested on: MV-4-11 cells
Assay: Gene expression microarray analysis (Affymetrix PrimeView) and GSEA
Format: cell-based, human
Parameters: RFU PODN (11730768_x_at) / Fold change /veh PODN (11730768_x_at) / RFU LINC00158 (11744669_a_at) / Fold change /veh LINC00158 (11744669_a_at) / RFU DUSP10 (11751237_a_at) / Fold change /veh DUSP10 (11751237_a_at) / RFU ID3 (11757404_x_at) / Fold change /veh ID3 (11757404_x_at) / RFU PLEKHG5 (11737974_s_at) / Fold change /veh PLEKHG5 (11737974_s_at) / RFU LRRC4B (11730491_at) / Fold change /veh LRRC4B (11730491_at) / RFU GIMAP4 (11747438_a_at) / Fold change /veh GIMAP4 (11747438_a_at) / RFU KRT8 (11758183_x_at) / Fold change /veh KRT8 (11758183_x_at) / RFU CNN1 (11734310_a_at) / Fold change /veh CNN1 (11734310_a_at) / RFU VPS37D (11726825_at) / Fold change /veh VPS37D (11726825_at) / RFU C10orf10 (11716522_x_at) / Fold change /veh C10orf10 (11716522_x_at) / RFU KIR2DL2 /// KIR2DL4 /// KIR2DL5A /// KIR2DL5B /// KIR2DS1 /// KIR2DS2 /// KIR2DS3 /// KIR2DS4 /// KIR3DL3 /// KIR3DL3 /// KIR3DS1 (11738374_at) / Fold change /veh KIR2DL2 /// KIR2DL4 /// KIR2DL5A /// KIR2DL5B /// KIR2DS1 /// KIR2DS2 /// KIR2DS3 /// KIR2DS4 /// KIR3DL3 /// KIR3DL3 /// KIR3DS1 (11738374_at) / RFU C1QL1 (11718748_at) / Fold change /veh C1QL1 (11718748_at) / RFU TMPRSS4 (11747572_a_at) / Fold change /veh TMPRSS4 (11747572_a_at) / RFU HAMP (11756126_x_at) / Fold change /veh HAMP (11756126_x_at) / RFU RNFT2 (11725882_a_at) / Fold change /veh RNFT2 (11725882_a_at) / RFU NR4A2 (11747474_a_at) / Fold change /veh NR4A2 (11747474_a_at) / RFU ABCC12 (11746883_a_at) / Fold change /veh ABCC12 (11746883_a_at) / RFU TMEM136 (11760407_x_at) / Fold change /veh TMEM136 (11760407_x_at) / RFU CLDN22 /// WWC2 (11732394_at) / Fold change /veh CLDN22 /// WWC2 (11732394_at) / RFU HLA-DPB1 (11760878_x_at) / Fold change /veh HLA-DPB1 (11760878_x_at) / RFU SPINT1 (11716480_a_at) / Fold change /veh SPINT1 (11716480_a_at) / RFU GAP43 (11754022_s_at) / Fold change /veh GAP43 (11754022_s_at) / RFU A4GNT (11735810_at) / Fold change /veh A4GNT (11735810_at) / RFU PRB3 (11715151_x_at) / Fold change /veh PRB3 (11715151_x_at) / RFU TUBB4B (11761932_at) / Fold change /veh TUBB4B (11761932_at) / RFU CAPN14 (11732068_a_at) / Fold change /veh CAPN14 (11732068_a_at) / RFU TMCC2 (11721928_a_at) / Fold change /veh TMCC2 (11721928_a_at) / RFU IRGQ (11745062_a_at) / Fold change /veh IRGQ (11745062_a_at) / RFU FAM174B (11720279_a_at) / Fold change /veh FAM174B (11720279_a_at) / RFU TMPRSS4 (11748680_a_at) / Fold change /veh TMPRSS4 (11748680_a_at) / RFU FAM212B (11763350_a_at) / Fold change /veh FAM212B (11763350_a_at) / RFU PLEKHG5 (11743358_a_at) / Fold change /veh PLEKHG5 (11743358_a_at) / RFU ZSCAN30 (11745921_a_at) / Fold change /veh ZSCAN30 (11745921_a_at) / RFU CMKLR1 (11741424_a_at) / Fold change /veh CMKLR1 (11741424_a_at) / RFU LOC101060620 /// MAPK8IP1 (11723275_at) / Fold change /veh LOC101060620 /// MAPK8IP1 (11723275_at) / RFU SPTSSB (11747773_x_at) / Fold change /veh SPTSSB (11747773_x_at) / RFU PRSS12 (11739890_at) / Fold change /veh PRSS12 (11739890_at) / RFU BIN1 (11741810_x_at) / Fold change /veh BIN1 (11741810_x_at) / RFU WNT11 (11732464_a_at) / Fold change /veh WNT11 (11732464_a_at) / RFU C10orf10 (11716521_a_at) / Fold change /veh C10orf10 (11716521_a_at) / RFU C5orf56 (11738089_at) / Fold change /veh C5orf56 (11738089_at) / RFU CYB561 (11721691_x_at) / Fold change /veh CYB561 (11721691_x_at) / RFU ANKRD19P (11752326_a_at) / Fold change /veh ANKRD19P (11752326_a_at) / RFU OR2T12 /// OR2T33 /// OR2T8 (11738714_s_at) / Fold change /veh OR2T12 /// OR2T33 /// OR2T8 (11738714_s_at) / RFU VCAN (11748164_a_at) / Fold change /veh VCAN (11748164_a_at) / RFU JSRP1 (11732532_at) / Fold change /veh JSRP1 (11732532_at) / RFU KRTAP10-11 (11738290_x_at) / Fold change /veh KRTAP10-11 (11738290_x_at) / RFU MYO3A (11730013_a_at) / Fold change /veh MYO3A (11730013_a_at) / RFU EBF3 (11725865_a_at) / Fold change /veh EBF3 (11725865_a_at) / RFU CAMK2N1 (11719241_x_at) / Fold change /veh CAMK2N1 (11719241_x_at) / RFU C5orf56 (11738088_a_at) / Fold change /veh C5orf56 (11738088_a_at) / RFU OLFML3 (11715873_a_at) / Fold change /veh OLFML3 (11715873_a_at) / RFU LOC100653217 /// NTM (11731650_a_at) / Fold change /veh LOC100653217 /// NTM (11731650_a_at) / RFU MAPK11 (11762145_a_at) / Fold change /veh MAPK11 (11762145_a_at) / RFU FIZ1 (11724087_x_at) / Fold change /veh FIZ1 (11724087_x_at) / RFU OASL (11726364_x_at) / Fold change /veh OASL (11726364_x_at) / RFU SOX15 (11748057_x_at) / Fold change /veh SOX15 (11748057_x_at) / RFU CD79A (11719716_a_at) / Fold change /veh CD79A (11719716_a_at) / RFU HIST1H1D (11736915_at) / Fold change /veh HIST1H1D (11736915_at) / RFU CASKIN2 (11723855_a_at) / Fold change /veh CASKIN2 (11723855_a_at) / RFU LOC730098 (11760151_x_at) / Fold change /veh LOC730098 (11760151_x_at) / RFU OR4N2 (11742367_at) / Fold change /veh OR4N2 (11742367_at) / RFU PRRT2 (11749266_a_at) / Fold change /veh PRRT2 (11749266_a_at) / RFU SNX32 (11753110_a_at) / Fold change /veh SNX32 (11753110_a_at) / RFU CDHR5 (11726645_a_at) / Fold change /veh CDHR5 (11726645_a_at) / RFU RCAN1 (11760418_a_at) / Fold change /veh RCAN1 (11760418_a_at) / RFU FAM167A (11723789_a_at) / Fold change /veh FAM167A (11723789_a_at) / RFU FAM26E (11764081_at) / Fold change /veh FAM26E (11764081_at) / RFU ISYNA1 (11749810_s_at) / Fold change /veh ISYNA1 (11749810_s_at) / RFU ACY1 (11761880_at) / Fold change /veh ACY1 (11761880_at) / RFU 11764098_at / Fold change /veh 11764098_at / RFU SAMD14 (11745864_x_at) / Fold change /veh SAMD14 (11745864_x_at) / RFU NPB (11741838_a_at) / Fold change /veh NPB (11741838_a_at) / RFU TMPRSS6 (11731388_a_at) / Fold change /veh TMPRSS6 (11731388_a_at) / RFU KRTAP10-2 (11738614_at) / Fold change /veh KRTAP10-2 (11738614_at) / RFU ARHGAP8 /// PRR5-ARHGAP8 (11727945_x_at) / Fold change /veh ARHGAP8 /// PRR5-ARHGAP8 (11727945_x_at) / RFU KRTAP5-7 /// NADSYN1 (11734609_at) / Fold change /veh KRTAP5-7 /// NADSYN1 (11734609_at) / RFU RASL12 (11751679_a_at) / Fold change /veh RASL12 (11751679_a_at) / RFU CDKN2B (11736163_a_at) / Fold change /veh CDKN2B (11736163_a_at) / RFU PRF1 (11729649_at) / Fold change /veh PRF1 (11729649_at) / RFU, ZNF638 /// ZNF638-IT1 / Fold change vs veh, ZNF638 /// ZNF638-IT1 / RFU, PANK3 / Fold change vs veh, PANK3 / RFU, SH3YL1 / Fold change vs veh, SH3YL1 / RFU, ZEB2 / Fold change vs veh, ZEB2 / RFU, NRIP1 / Fold change vs veh, NRIP1 / RFU, PTTG1IP / Fold change vs veh, PTTG1IP / RFU, CAPN2 / Fold change vs veh, CAPN2 / RFU, MED14 / Fold change vs veh, MED14 / RFU, SNORA58 / Fold change vs veh, SNORA58 / RFU, C1orf63 / Fold change vs veh, C1orf63 / RFU, LRRFIP1 / Fold change vs veh, LRRFIP1 / RFU, NDUFAF7 / Fold change vs veh, NDUFAF7 / RFU, SLC12A2 / Fold change vs veh, SLC12A2 / RFU, IBTK / Fold change vs veh, IBTK / RFU, ESF1 / Fold change vs veh, ESF1 / Fold change vs veh, TMEM50B / RFU, TAOK1 / Fold change vs veh, TAOK1 / RFU, ACBD3 / Fold change vs veh, ACBD3 / RFU, TMA16 / Fold change vs veh, TMA16 / RFU, RWDD3 / Fold change vs veh, RWDD3 / RFU, BCAT1 / Fold change vs veh, BCAT1 / RFU, EDEM3 / Fold change vs veh, EDEM3 / RFU, TMEM33 / Fold change vs veh, TMEM33 / RFU, WDR75 / Fold change vs veh, WDR75 / RFU, AHCTF1 / Fold change vs veh, AHCTF1 / RFU, TFRC / Fold change vs veh, TFRC / RFU, ZDHHC17 / Fold change vs veh, ZDHHC17 / RFU, NOM1 / Fold change vs veh, NOM1 / RFU, ARL8B / Fold change vs veh, ARL8B / RFU, ZBTB11 / Fold change vs veh, ZBTB11 / RFU, TAMM41 / Fold change vs veh, TAMM41 / RFU, KIAA1704 /// LOC100996395 / Fold change vs veh, KIAA1704 /// LOC100996395 / RFU, ING1 / Fold change vs veh, ING1 / RFU, TRMT61B / Fold change vs veh, TRMT61B / RFU, FUBP3 / Fold change vs veh, FUBP3 / RFU, TP53 / Fold change vs veh, TP53 / RFU, TNKS2 / Fold change vs veh, TNKS2 / RFU, ZFP14 / Fold change vs veh, ZFP14 / RFU, ACTR2 / Fold change vs veh, ACTR2 / RFU, PPP3R1 / Fold change vs veh, PPP3R1 / RFU, PIK3R1 / Fold change vs veh, PIK3R1 / RFU, HNRNPA1 / Fold change vs veh, HNRNPA1 / RFU, RNF170 / Fold change vs veh, RNF170 / RFU, ZNF28 / Fold change vs veh, ZNF28 / RFU, RNGTT / Fold change vs veh, RNGTT / RFU, OGT / Fold change vs veh, OGT / RFU, BRD1 / Fold change vs veh, BRD1 / RFU, MARS / Fold change vs veh, MARS / RFU, ZNF655 / Fold change vs veh, ZNF655 / RFU, FAHD1 / Fold change vs veh, FAHD1 / RFU, BDP1 / Fold change vs veh, BDP1 / RFU, LRRCC1 / Fold change vs veh, LRRCC1 / RFU, ARID1A / Fold change vs veh, ARID1A / RFU, ZNF146 / Fold change vs veh, ZNF146 / RFU, ZNF330 / Fold change vs veh, ZNF330 / RFU, GPN3 / Fold change vs veh, GPN3 / RFU, C9orf123 / Fold change vs veh, C9orf123 / RFU, N4BP2L2 / Fold change vs veh, N4BP2L2 / RFU, ARFIP1 / Fold change vs veh, ARFIP1 / RFU, FAM179B / Fold change vs veh, FAM179B / RFU, BCL10 / Fold change vs veh, BCL10 / RFU, UHRF1BP1L / Fold change vs veh, UHRF1BP1L / RFU, BET1 / Fold change vs veh, BET1 / RFU, CNOT2 / Fold change vs veh, CNOT2 / RFU, ZNF268 / Fold change vs veh, ZNF268 / Fold change vs veh, ZNF507 / RFU, DGCR2 / Fold change vs veh, DGCR2 / RFU, WDSUB1 / Fold change vs veh, WDSUB1 / Fold change vs veh, HSP90B1 /// MIR3652 / RFU, ADSS / Fold change vs veh, ADSS / RFU, GK / Fold change vs veh, GK / RFU, ZNF148 / Fold change vs veh, ZNF148 / RFU, TAF9 / Fold change vs veh, TAF9 / RFU, SLC1A5 / Fold change vs veh, SLC1A5 / RFU, SLMO2 / Fold change vs veh, SLMO2 / RFU, ABCC4 / Fold change vs veh, ABCC4 / RFU, LOC101060439 /// RAP1B / Fold change vs veh, LOC101060439 /// RAP1B / RFU, RFX7 / Fold change vs veh, RFX7 / RFU, GTPBP10 / Fold change vs veh, GTPBP10 / RFU, CNEP1R1 / Fold change vs veh, CNEP1R1 / RFU, BIVM-ERCC5 /// ERCC5 / Fold change vs veh, BIVM-ERCC5 /// ERCC5 / RFU, ILF3 / Fold change vs veh, ILF3 / RFU 11762660_at / Fold change /veh 11762660_at / RFU VCAN (11757783_s_at) / Fold change /veh VCAN (11757783_s_at) / RFU DDX43 (11728927_at) / Fold change /veh DDX43 (11728927_at) / RFU KRT8 (11758188_x_at) / Fold change /veh KRT8 (11758188_x_at) / RFU NKD1 (11759106_at) / Fold change /veh NKD1 (11759106_at) / RFU SRD5A1 (11742802_a_at) / Fold change /veh SRD5A1 (11742802_a_at) / RFU TPSAB1 /// TPSB2 (11721975_s_at) / Fold change /veh TPSAB1 /// TPSB2 (11721975_s_at) / RFU GSTM3 (11746129_a_at) / Fold change /veh GSTM3 (11746129_a_at) / RFU IL23R (11737362_x_at) / Fold change /veh IL23R (11737362_x_at) / RFU TMEM51 (11727254_a_at) / Fold change /veh TMEM51 (11727254_a_at) / RFU PIWIL2 (11732686_x_at) / Fold change /veh PIWIL2 (11732686_x_at) / RFU ORM1 (11744905_x_at) / Fold change /veh ORM1 (11744905_x_at) / RFU CCDC152 (11743942_at) / Fold change /veh CCDC152 (11743942_at) / RFU ECM1 (11717891_a_at) / Fold change /veh ECM1 (11717891_a_at) / RFU IL23R (11748794_a_at) / Fold change /veh IL23R (11748794_a_at) / RFU TNFAIP8L3 (11732012_x_at) / Fold change /veh TNFAIP8L3 (11732012_x_at) / RFU MBOAT4 (11741988_at) / Fold change /veh MBOAT4 (11741988_at) / RFU 11764193_at / Fold change /veh 11764193_at / RFU TMEM53 (11763286_at) / Fold change /veh TMEM53 (11763286_at) / RFU MAGEB2 (11727129_at) / Fold change /veh MAGEB2 (11727129_at) / RFU TMEM200A (11744735_a_at) / Fold change /veh TMEM200A (11744735_a_at) / RFU CCDC152 (11751479_a_at) / Fold change /veh CCDC152 (11751479_a_at) / RFU FAM211A (11726209_a_at) / Fold change /veh FAM211A (11726209_a_at) / RFU RGS16 (11746705_a_at) / Fold change /veh RGS16 (11746705_a_at) / RFU VCAN (11755009_s_at) / Fold change /veh VCAN (11755009_s_at) / RFU RHOB (11743442_s_at) / Fold change /veh RHOB (11743442_s_at) / RFU RGS16 (11720943_a_at) / Fold change /veh RGS16 (11720943_a_at) / RFU RGS16 (11720944_at) / Fold change /veh RGS16 (11720944_at) / RFU, VPS4B / Fold change vs veh, VPS4B / RFU, CREB1 / Fold change vs veh, CREB1 / RFU, DNAJC13 / Fold change vs veh, DNAJC13 / RFU, GNAQ / Fold change vs veh, GNAQ / RFU, CDK5R1 / Fold change vs veh, CDK5R1 / RFU, ZRANB3 / Fold change vs veh, ZRANB3 / RFU, CUL4A / Fold change vs veh, CUL4A / RFU, CCNY / Fold change vs veh, CCNY / RFU, UFL1 / Fold change vs veh, UFL1 / RFU, COG3 / Fold change vs veh, COG3 / RFU, DIAPH2 / Fold change vs veh, DIAPH2 / RFU, SKA2 / Fold change vs veh, SKA2 / RFU, AFF3 / Fold change vs veh, AFF3 / RFU, LMF1 / Fold change vs veh, LMF1 / RFU, IPO11 / Fold change vs veh, IPO11 / RFU, DFFB / Fold change vs veh, DFFB / RFU, FOXP1 / Fold change vs veh, FOXP1 / RFU, CARD8 / Fold change vs veh, CARD8 / RFU, STRN3 / Fold change vs veh, STRN3 / RFU, ADK / Fold change vs veh, ADK / RFU, RASSF2 / Fold change vs veh, RASSF2 / RFU, WIPF1 / Fold change vs veh, WIPF1 / RFU, LARP1B / Fold change vs veh, LARP1B / RFU, RASA1 / Fold change vs veh, RASA1 / RFU, RB1 / Fold change vs veh, RB1 / RFU, PPFIA1 / Fold change vs veh, PPFIA1 / RFU, MAT2A / Fold change vs veh, MAT2A / RFU, CCT5 / Fold change vs veh, CCT5 / RFU, WDR92 / Fold change vs veh, WDR92 / RFU, CUX1 / Fold change vs veh, CUX1 / RFU, TTC7A / Fold change vs veh, TTC7A / RFU, TMEM135 / Fold change vs veh, TMEM135 / RFU, DEPTOR / Fold change vs veh, DEPTOR / RFU, CPM / Fold change vs veh, CPM / RFU, DNAJB6 / Fold change vs veh, DNAJB6 / RFU, CACNA2D3 / Fold change vs veh, CACNA2D3 / RFU, DTX4 / Fold change vs veh, DTX4 / RFU, TFCP2 / Fold change vs veh, TFCP2 / RFU, GMCL1 /// GMCL1P1 / Fold change vs veh, GMCL1 /// GMCL1P1 / RFU, AEBP2 / Fold change vs veh, AEBP2 / RFU, SNHG1 /// SNORD22 /// SNORD25 /// SNORD26 /// SNORD27 /// SNORD28 /// SNORD29 /// SNORD31 / Fold change vs veh, SNHG1 /// SNORD22 /// SNORD25 /// SNORD26 /// SNORD27 /// SNORD28 /// SNORD29 /// SNORD31 / Fold change (Aza/veh), C12orf56 (ProbeSet 11735607_a_at) / Fold change (ACY-1035/veh), C12orf56 (ProbeSet 11735607_a_at) / Fold change (Aza/veh), FGFR1OP (ProbeSet 11751329_s_at) / Fold change (ACY-1035/veh), FGFR1OP (ProbeSet 11751329_s_at) / Fold change (Aza/veh), VPS36 (ProbeSet 11739960_a_at) / Fold change (ACY-1035/veh), VPS36 (ProbeSet 11739960_a_at) / RFU SYPL1 (11715823_x_at) / Fold change /veh SYPL1 (11715823_x_at) / RFU IGFBP7 (11715501_s_at) / Fold change /veh IGFBP7 (11715501_s_at) / RFU REEP3 (11722064_at) / Fold change /veh REEP3 (11722064_at) / RFU IGLL1 (11728026_x_at) / Fold change /veh IGLL1 (11728026_x_at): dose or concentration left out as unconfirmed
Details: MV-4-11 cells, 48 hours

For Nc1ncn([C@@H]2O[C@H](CO)[C@@H](O)[C@H]2O)c(=O)n1 [azacitidine], the “RFU HAMP (11756126_x_at)” value was 317.78 RFU.
